From patent publication US20250049735A1, “MEDICINE FOR STEATOHEPATITIS” (The University of Tokyo, priority 2021, published 2025)

Test system: Atp8b1 E-KO mice
Protocol: All animal experiments were approved by and performed in accordance with the guidelines of the animal experiment committee of the University of Tokyo. To generate Atp8b1^flox/flox mice, ICR and C57BL/6J mice were purchased from Charles River Laboratories International, Inc. (Yokohama, Japan). Mice were kept under pathogen-free conditions at a room temperature of 23.5° C.±2.5° C. and a relative humidity of 52.5%+12.5% under a 14-hour light: 10-hour dark cycle. […] In order to supplement choline to pups, mother mice were fed with a 1.0% choline supplemented diet (D20011404, Research Diets) until weaning of their pups.
Male 3 to 4-week-old intestinal epithelial cell-specific Atp8b1 knockout (Atp8b1 E-KO) mice and control mice (littermate Flox/Flox mice) underwent laparotomy under isoflurane anesthesia. […] The blood was centrifuged at 1,700×g for 15 minutes, and plasma was separated. Thereafter, the plasma was flash-frozen in liquid nitrogen and was stored at −80° C. The liver was excised and was then flash-frozen in liquid nitrogen, and thereafter, the thus frozen liver was stored at −80° C., or was used for histological and electron microscopic analyses. The small intestine was excised, was then rinsed with cold PBS containing 0.5m M taurocholic acid, and was then used for histological and electron microscopic analyses, or for preparation of epithelial cells. To isolate epithelial cells from small intestine, TTDR kit (Becton Dickinson, Becton Drive Franklin Lakes, NJ) was used. According to the manufacturer's instructions included with the kit, the small intestine was opened longitudinally, was sliced into small fragments with a size of roughly 2 mm. The fragments were incubated with 1×TTDR diluted with DMEM (11995-065, gibco) at 37° C. for 30 minutes, and the resulting fragments were then mixed with 2 mM EDTA/PBS containing 1% BSA. The thus obtained mixture was filtrated through a 70 μm cell strainer (VWR21008-952; Corning Inc, Corning, NY), and was then centrifugated at 250×g at 4° C. for 10 minutes. The obtained cell pellets were incubated with 1×Pharm Lyse (Becton Dickinson, Becton Drive Franklin Lakes, NJ) at room temperature for 15 minutes for the lysis of red blood cells, and the resultant was then mixed with 2 mM EDTA/PBS containing 1% BSA. The thus obtained mixture was centrifuged at 250×g at 4° C. for 10 minutes. The prepared epithelial cells were flash frozen in liquid nitrogen, and were then stored at −80° C.
Metabolites were extracted from plasma, liver, and intestinal epithelial cells with methanol. After centrifugation at 20,000×g at 4° C. for 5 minutes, the supernatant was mixed with 400 mM ammonium sulfate at a ratio of 19:1. The mixture was centrifuged at 20,000×g at 4° C. for 5 minutes. The supernatant was applied to the LC/MS/MS system, which consisted of a UHPLC Nexera liquid chromatography system (Shimadzu co., Kyoto, Japan) and a 5500QTRAP mass spectrometer (AB Sciex pte. ltd., Toronto, Canada). The analytes were passed through a ZIC-CHILIC column (2.1×100 mm, 3 μm, Merck Millipore, Darmstadt, Germany) at a temperature of 30° C. with a gradient elution of the mobile phases, 10 mM ammonium formate aqueous solution and acetonitrile at a flow rate at 0.4 mL/min. The eluent was ionized using electrospray ionization and was scanned with an MRM mode (see Yuan et al., Nat. Protoc. 2012, 7 (5), 872-881. https://doi.org/10.1038/nprot.2012.024). Each MRM peak was assigned to a target molecule in comparison with its authentic standard.
The concentrations of choline, betaine, dimethylglycine (N,N-dimethylglycine) and glycerophosphorylcholine (sn-glycero-3-phosphocholine) in plasma were determined by liquid chromatography/tandem mass spectrometry (LC/MS/MS) assay. The sample was mixed with 98-fold volume of ethanol and 1-fold volume of the internal standard (IS) solution (10 μmol/L choline in water, 10 μmol/L glycerophosphorylcholine in water, and 1 μmol/L betaine in water).

[1] = liver of pups, mothers fed 1% choline supplemented diet vs normal diet (0.1% choline)
[2] = liver of pups, mothers fed 1% choline supplemented diet, compared with control mice
[3] = plasma and liver of Atp8b1 E-KO pups, mothers fed 1% choline supplemented diet, summary statement
[4] = plasma of pups, mothers fed 1% choline supplemented diet vs normal diet (0.1% choline)
[5] = plasma of pups, mothers fed 1% choline supplemented diet, compared with control mice
[6] = small intestinal epithelial cells of pups, mothers fed 1% choline supplemented diet vs normal diet (0.1% choline)

C[N+](C)(C)CCO [choline]
concentration of choline in liver [1]: not changed
concentration of glycerophosphorylcholine (GPC) in liver [1]: not changed
concentration of phosphorylcholine in liver [1]: not changed
concentration of betaine in liver [2]: recovered
concentration of dimethylglycine in liver [2]: recovered
concentration of phosphatidylcholine (PC) in liver [2]: recovered
amount of choline in the pups (plasma and liver of Atp8b1 E-KO pups, mothers fed 1% choline supplemented diet vs normal diet, summary statement): no change
amount of betaine in the pups [3]: increased
amount of dimethylglycine in the pups [3]: increased
amount of phosphatidylcholine (PC) in the pups [3]: increased
concentration of choline in plasma [4]: not changed
concentration of glycerophosphorylcholine (GPC) in plasma [4]: not changed
concentration of phosphorylcholine in plasma [4]: not changed
concentration of betaine in plasma [5]: recovered
concentration of dimethylglycine in plasma [5]: recovered
concentration of betaine in small intestinal epithelial cells (small intestinal epithelial cells of pups, mothers fed 1% choline supplemented diet): not changed
concentration of choline in small intestinal epithelial cells [6]: not changed
concentration of glycerophosphorylcholine (GPC) in small intestinal epithelial cells [6]: not changed
concentration of phosphorylcholine in small intestinal epithelial cells [6]: not changed
